Laboratory results: patent US20240218022A1, “ANTI-VISTA MACROCYCLIC PEPTIDES AND COMPOSITIONS” (BRISTOL-MYERS SQUIBB COMPANY, priority 2022, published 2024)
Positions of bridges follow the written chain, without caps; N, C: chain ends. Non-standard residues stand in square brackets, D forms with d. Residues, ends and D or L forms follow the SMILES beside them. 2Nal = N[C@@H](Cc1ccc2ccccc2c1)C(=O)O; Cit = NC(=O)NCCC[C@H](N)C(=O)O; Ahp(2) = CCCCC[C@H](N)C(=O)O; NMeNle = CCCC[C@H](NC)C(=O)O; NHexGly = CCCCCCNCC(=O)O; Nle = CCCC[C@H](N)C(=O)O; Orn = NCCC[C@H](N)C(=O)O

Biological target: T1, mouse VISTA (mVISTA) (Mus musculus, UniProt Q9D659)
T1 construct: expressed in transfected cells; host or cells: Human embryonic kidney 293T cells
T1 sequence (Q9D659 33-308): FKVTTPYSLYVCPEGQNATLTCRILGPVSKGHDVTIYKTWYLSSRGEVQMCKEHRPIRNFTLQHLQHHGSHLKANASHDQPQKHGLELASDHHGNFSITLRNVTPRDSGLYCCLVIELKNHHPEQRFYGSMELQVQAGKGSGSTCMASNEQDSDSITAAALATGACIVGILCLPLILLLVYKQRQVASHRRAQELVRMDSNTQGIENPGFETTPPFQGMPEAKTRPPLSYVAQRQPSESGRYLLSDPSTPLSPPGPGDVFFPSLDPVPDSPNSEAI
Test: Cell-Based Binding High-Content Assay For mVISTA (HC CBA mVISTA)
Details: cell-based binding high-content assay, mVISTA; the 16th table; read-out: HC CBA mVISTA IC50
How it was run: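 This high-content binding assay uses HEK293T cells expressing murine VISTA, measuring displacement of 2 nM biotinylated peptide by fluorescent streptavidin imaging. IC50 values come from four-parameter logistic fitting.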

Compound	IC50 [nM]
CCCCCCN1CC(=O)N[C@@H](Cc2ccc(O)cc2)C(=O)N[C@@H](CCCC)C(=O)N[C@@H](CC(N)=O)C(=O)N[C@@H](CCCNC(=N)N)C(=O)N(C)[C@@H](CCCC)C(=O)N[C@@H](CCCCC)C(=O)N2CCC[C@H]2C(=O)N[C@@H](C(C)C)C(=O)N[C@@H](CC(=O)O)C(=O)N[C@H](C(=O)NCC(=O)O)CSCC(=O)N[C@@H](Cc2ccc3ccccc3c2)C(=O)N[C@@H](Cc2ccc(O)cc2)C(=O)N[C@@H](CC(=O)O)C1=O [Ex 1308] ({CH2CO}-[2Nal]YD[NHexGly]Y[Nle]NR[NMeNle][Ahp(2)]PVDCG-OH; thioether N-14)	9.5
CCCCCCN1CC(=O)N[C@@H](Cc2ccc(O)cc2)C(=O)N[C@@H](C(C)C)C(=O)NCC(=O)N[C@@H](CCCNC(=N)N)C(=O)N[C@@H](CC(C)C)C(=O)N[C@@H](CCCCC)C(=O)N2CCC[C@H]2C(=O)N[C@@H](C(C)C)C(=O)N[C@@H](CC(=O)O)C(=O)N[C@H](C(=O)N[C@@H](CC(C)C)C(N)=O)CSCC(=O)N[C@@H](Cc2ccc3ccccc3c2)C(=O)N[C@@H](Cc2ccc(O)cc2)C(=O)N[C@@H](CC(=O)O)C1=O [Ex 1309] ({CH2CO}-[2Nal]YD[NHexGly]YVGRL[Ahp(2)]PVDCL-NH2; thioether N-14)	5.2
CCCCCCN1CC(=O)N[C@@H](Cc2ccc(O)cc2)C(=O)N[C@@H](C(C)C)C(=O)NCC(=O)N[C@@H](CCCNC(=N)N)C(=O)N[C@@H](CC(C)C)C(=O)N[C@@H](CCCCC)C(=O)N2CCC[C@H]2C(=O)N[C@@H](C(C)C)C(=O)N[C@@H](CC(=O)O)C(=O)N[C@H](C(=O)N[C@@H](CC(N)=O)C(N)=O)CSCC(=O)N[C@@H](Cc2ccc3ccccc3c2)C(=O)N[C@@H](Cc2ccc(O)cc2)C(=O)N[C@@H](CC(=O)O)C1=O [Ex 1310] ({CH2CO}-[2Nal]YD[NHexGly]YVGRL[Ahp(2)]PVDCN-NH2; thioether N-14)	3.4
CCCCCCN1CC(=O)N[C@@H](Cc2ccc(O)cc2)C(=O)N[C@@H](CCCC)C(=O)N[C@@H](CC(N)=O)C(=O)N[C@@H](CCCNC(=N)N)C(=O)N[C@@H](CC(C)C)C(=O)N[C@@H](CCCCC)C(=O)N2CCC[C@H]2C(=O)N[C@@H](C(C)C)C(=O)N[C@@H](CC(=O)O)C(=O)N[C@H](C(=O)N[C@@H](CC(N)=O)C(N)=O)CSCC(=O)N[C@@H](Cc2ccc3ccccc3c2)C(=O)N[C@@H](Cc2ccc(O)cc2)C(=O)N[C@@H](CC(=O)O)C1=O [Ex 1311] ({CH2CO}-[2Nal]YD[NHexGly]Y[Nle]NRL[Ahp(2)]PVDCN-NH2; thioether N-14)	8.3
CCCCCCN1CC(=O)N[C@@H](Cc2ccc(O)cc2)C(=O)N[C@@H](C(C)C)C(=O)NCC(=O)N[C@@H](CCCNC(=N)N)C(=O)N[C@@H](CC(C)C)C(=O)N[C@@H](CCCCC)C(=O)N2CCC[C@H]2C(=O)N[C@@H](C(C)C)C(=O)N[C@@H](CC(=O)O)C(=O)N[C@H](C(=O)N[C@@H](CCCNC(=N)N)C(N)=O)CSCC(=O)N[C@@H](Cc2ccc3ccccc3c2)C(=O)N[C@@H](Cc2ccc(O)cc2)C(=O)N[C@@H](CC(=O)O)C1=O [Ex 1312] ({CH2CO}-[2Nal]YD[NHexGly]YVGRL[Ahp(2)]PVDCR-NH2; thioether N-14)	7.7
CCCCCCN1CC(=O)N[C@@H](Cc2ccc(O)cc2)C(=O)N[C@@H](C(C)C)C(=O)NCC(=O)N[C@@H](CCCNC(=N)N)C(=O)N[C@@H](CC(C)C)C(=O)N[C@@H](CCCCC)C(=O)N2CCC[C@H]2C(=O)N[C@@H](C(C)C)C(=O)N[C@@H](CC(=O)O)C(=O)N[C@H](C(=O)N[C@@H](CO)C(N)=O)CSCC(=O)N[C@@H](Cc2ccc3ccccc3c2)C(=O)N[C@@H](Cc2ccc(O)cc2)C(=O)N[C@@H](CC(=O)O)C1=O [Ex 1314] ({CH2CO}-[2Nal]YD[NHexGly]YVGRL[Ahp(2)]PVDCS-NH2; thioether N-14)	1.4
CCCCCCN1CC(=O)N[C@@H](Cc2ccc(O)cc2)C(=O)N[C@@H](CCCC)C(=O)N[C@@H](CC(N)=O)C(=O)N[C@@H](CCCNC(=N)N)C(=O)N[C@@H](CC(C)C)C(=O)N[C@@H](CCCCC)C(=O)N2CCC[C@H]2C(=O)N[C@@H](C(C)C)C(=O)N[C@@H](CC(=O)O)C(=O)N[C@H](C(=O)N[C@@H](CO)C(N)=O)CSCC(=O)N[C@@H](Cc2ccc3ccccc3c2)C(=O)N[C@@H](Cc2ccc(O)cc2)C(=O)N[C@@H](CC(=O)O)C1=O [Ex 1315] ({CH2CO}-[2Nal]YD[NHexGly]Y[Nle]NRL[Ahp(2)]PVDCS-NH2; thioether N-14)	37.1
CCCCCCN1CC(=O)N[C@@H](Cc2ccc(O)cc2)C(=O)N[C@@H](C(C)C)C(=O)NCC(=O)N[C@@H](CCCNC(N)=O)C(=O)N[C@@H](CC(C)C)C(=O)N[C@@H](CCCCC)C(=O)N2CCC[C@H]2C(=O)N[C@@H](C(C)C)C(=O)N[C@@H](CC(=O)O)C(=O)N[C@H](C(=O)N[C@@H](CO)C(N)=O)CSCC(=O)N[C@@H](Cc2ccc3ccccc3c2)C(=O)N[C@@H](Cc2ccc(O)cc2)C(=O)N[C@@H](CC(=O)O)C1=O [Ex 1316] ({CH2CO}-[2Nal]YD[NHexGly]YVG[Cit]L[Ahp(2)]PVDCS-NH2; thioether N-14)	10.6

Continued, values first:

IC50 [nM]	Compound
17.5	CCCCCCN1CC(=O)N[C@@H](Cc2ccc(O)cc2)C(=O)N[C@@H](CCCC)C(=O)N[C@@H](CC(=O)O)C(=O)N[C@@H](CCCNC(=N)N)C(=O)N[C@@H](CC(C)C)C(=O)N[C@@H](CCCCC)C(=O)N2CCC[C@H]2C(=O)N[C@@H](C(C)C)C(=O)N[C@@H](CC(=O)O)C(=O)N[C@H](C(=O)N[C@@H](CO)C(N)=O)CSCC(=O)N[C@@H](Cc2ccc3ccccc3c2)C(=O)N[C@@H](Cc2ccc(O)cc2)C(=O)N[C@@H](CC(=O)O)C1=O [Ex 1317] ({CH2CO}-[2Nal]YD[NHexGly]Y[Nle]DRL[Ahp(2)]PVDCS-NH2; thioether N-14)
11.9	CCCCCCN1CC(=O)N[C@@H](Cc2ccc(O)cc2)C(=O)N[C@@H](CCCC)C(=O)N[C@@H](CC(=O)O)C(=O)N[C@@H](CCCNC(=N)N)C(=O)N(C)[C@@H](CCCC)C(=O)N[C@@H](CCCCC)C(=O)N2CCC[C@H]2C(=O)N[C@@H](C(C)C)C(=O)N[C@@H](CC(=O)O)C(=O)N[C@H](C(=O)N[C@@H](CO)C(N)=O)CSCC(=O)N[C@@H](Cc2ccc3ccccc3c2)C(=O)N[C@@H](Cc2ccc(O)cc2)C(=O)N[C@@H](CC(=O)O)C1=O [Ex 1318] ({CH2CO}-[2Nal]YD[NHexGly]Y[Nle]DR[NMeNle][Ahp(2)]PVDCS-NH2; thioether N-14)
13.7	CCCCCCN1CC(=O)N[C@@H](Cc2ccc(O)cc2)C(=O)N[C@@H](CCCC)C(=O)N[C@@H](CC(=O)O)C(=O)N[C@@H](CCCN)C(=O)N[C@@H](CC(C)C)C(=O)N[C@@H](CCCCC)C(=O)N2CCC[C@H]2C(=O)N[C@@H](C(C)C)C(=O)N[C@@H](CC(=O)O)C(=O)N[C@H](C(=O)N[C@@H](CO)C(N)=O)CSCC(=O)N[C@@H](Cc2ccc3ccccc3c2)C(=O)N[C@@H](Cc2ccc(O)cc2)C(=O)N[C@@H](CC(=O)O)C1=O [Ex 1319] ({CH2CO}-[2Nal]YD[NHexGly]Y[Nle]D[Orn]L[Ahp(2)]PVDCS-NH2; thioether N-14)
21.3	CCCCCCN1CC(=O)N[C@@H](Cc2ccc(O)cc2)C(=O)N[C@@H](CCCC)C(=O)N[C@@H](CC(=O)O)C(=O)N[C@@H](CCCN)C(=O)N(C)[C@@H](CCCC)C(=O)N[C@@H](CCCCC)C(=O)N2CCC[C@H]2C(=O)N[C@@H](C(C)C)C(=O)N[C@@H](CC(=O)O)C(=O)N[C@H](C(=O)N[C@@H](CO)C(N)=O)CSCC(=O)N[C@@H](Cc2ccc3ccccc3c2)C(=O)N[C@@H](Cc2ccc(O)cc2)C(=O)N[C@@H](CC(=O)O)C1=O [Ex 1320] ({CH2CO}-[2Nal]YD[NHexGly]Y[Nle]D[Orn][NMeNle][Ahp(2)]PVDCS-NH2; thioether N-14)
